# Legend:
# [1] = tested on: pancreatic beta cells; test: Animal studies: selective imaging of pancreatic beta cells; type: in vivo
# Excerpt: (§1) The present disclosure addresses at least in part some deficiencies in the prior art by providing novel DTPA-antidiabetic conjugates useful for imaging beta-cell function. Through binding of radiolabeled conjugates, such as ^99mTc-DTPA-antidiabetic conjugates, for example, to pancreatic beta receptors, detectable by gamma scintigraphy, pancreatic function is monitored. Four DTPA-antidiabetic conjugates have been synthesized and evaluated. […] These agents are labeled with isotopes in order to assess beta cell function in diabetic or insulinoma patients both pre- and post-treatment. These compositions and methods are useful to provide early diagnosis as well as monitoring of response of pancreatic disease during treatment.
# [2] = Animal studies: acute toxicity at the given doses; type: in vivo
# Excerpt: as §1
# [3] = tested on: pancreas; test: Scintigraphic imaging in rodents (planar gamma imaging); type: in vivo; conditions: normal rat and 13762 tumor-bearing rats, 300 μCi via tail vein, FIGS. 36-44
# Method: Scintigraphic imaging in rodents was conducted as follows:
# Female Fischer 344 rates (150-175 g) (Harlan Sprague-Dawley, Inc., Indianapolis, Ind.) were inoculated subcutaneously in the right leg with breast cancer cells (10^6 cells/rat) from the 13762 NF cell line (known as DMBA-induced breast cancer cell line). Scintigraphic imaging was serially performed on day 14 after inoculation. Planar images were obtained at 0.5, 1 and 2 hours after injection of 300 μCi of ^99mTc-DTPA-NGN or ^99mTc-DTPA-GLP via tail vein. Control groups were given ^99mTc-DTPA. Imaging was conducted with a gamma camera from Digirad (2020tc Imager, San Diego, Calif.) equipped with a low-energy parallel-hole collimator. The field of view is 20 cm×20 cm with an edge of 1.3 cm. The intrinsic spatial resolution is 3 mm and the matrix is 64×64. The system is designed for a planar image with sensitivity of 56 counts/second (cps)/MBq and spatial resolution of 7.6 mm.
# [4] = tested on: pancreas; conditions: rat, in vivo, iv
# Excerpt: FIG. 47 is a graphical representation comparing pancreas uptake for ^99mTc-DTPA and ^99mTc-DTPA-NGN in breast tumor-bearing rats (n=3/time interval, 20 μCi, IV, p=0.11, 0.05, and 0.01).
# FIG. 48 is a graphical representation of pancreas to muscle count density ratio of ^99mTc-DTPA and ^99mTc-NGN in breast tumor bearing rats (n=3/time interval, μCi/rat, IV, p=0.19, 0.19, and 0.029).
# Male (n=4) New Zealand white rabbits (Raynichols Rabbitry, Lumberton, Tex.) were inoculated with VX-2 cells (rabbit driven mammary squamous cell carcinoma). At day 14 post-inoculation, scintigraphic imaging studies were conducted with ^99mTc-DTPA-NGN (1 mCi, iv). Computer outlined region of interest was used to analyze target-to-nontarget ratios.
molecule,measurement,setting,value
DTPA-Glipizide,selective imaging of pancreatic beta cells,[1],able to selectively image pancreatic beta cells
"CC(C)[C@H]1CC[C@H](C(=O)N[C@H](Cc2ccccc2)C(=O)NCCNC(=O)CN(CCN(CCN(CC(=O)O)CC(=O)NCCNC(=O)[C@@H](Cc2ccccc2)NC(=O)[C@H]2CC[C@H](C(C)C)CC2)CC(=O)O)CC(=O)O)CC1 [DTPA-nateglinide, DTPA-Nateglinide]",acute toxicity,[2],no acute toxicity
^99mTc-DTPA-glipizide,visualization of pancreas by planar scintigraphy,[3],pancreas could be visualized
"CC(C)[C@H]1CC[C@H](C(=O)N[C@H](Cc2ccccc2)C(=O)NCCNC(=O)CN(CCN(CCN(CC(=O)O)CC(=O)NCCNC(=O)[C@@H](Cc2ccccc2)NC(=O)[C@H]2CC[C@H](C(C)C)CC2)CC(=O)O)CC(=O)O)CC1 [^99mTc-DTPA-nateglinide, metal not drawn]",pancreas uptake compared with control groups,[4],pancreas uptake was higher than control groups

# From patent publication US7611693B2, “Mechanism-based targeted pancreatic beta cell imaging and therapy” (Board of Regents, The Univerisity of Texas System, priority 2003, dated 2009)
